From patent publication US20260374756A1, “HETEROCYCLIC COMPOUNDS AS INHIBITORS OF MONOACYLGLYCEROL LIPASE (MAGL)” (Hoffmann-La Roche Inc., priority 2022, published 2026)

Molecular target: T1, hMAGL (Homo sapiens, UniProt Q99685)
T1 sequence (Q99685 1-303): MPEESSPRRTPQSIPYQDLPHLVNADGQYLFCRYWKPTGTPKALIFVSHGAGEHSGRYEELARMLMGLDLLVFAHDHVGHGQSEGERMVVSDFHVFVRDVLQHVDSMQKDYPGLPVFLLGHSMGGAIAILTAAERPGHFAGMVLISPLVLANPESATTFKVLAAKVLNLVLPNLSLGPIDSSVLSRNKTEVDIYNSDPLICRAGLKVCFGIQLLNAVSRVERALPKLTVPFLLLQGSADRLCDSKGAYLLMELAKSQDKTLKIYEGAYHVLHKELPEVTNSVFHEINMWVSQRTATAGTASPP
Test: 2-AG assay: MAGL inhibition, hydrolysis of 2-arachidonoylglycerol to arachidonic acid followed by mass spectrometry
Type: biochemical
Procedure, shortened: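 MAGL preincubated with compound 15 min at RT in 50 mM Tris, 1 mM EDTA, 0.01% Tween-20, 2.5% DMSO; reaction started with 8 μM 2-AG (final), […], 30 min at RT. Quenched with acetonitrile containing d8-arachidonic acid; arachidonic acid quantified by RapidFire SPE-triple quad MS as arachidonic acid/d8 ratio.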

SMILES | IC50
O=C(N1CC2(CC(Cc3nc(C(F)(F)F)c[nH]3)C2)C1)N1CC2(CC(n3cnc(C(F)(F)F)n3)C2)C1 [Example 348, [6-[[4-(trifluoromethyl)-1H-imidazol-2-yl]methyl]-2-azaspiro[3.3]heptan-2-yl]-[6-[3-(trifluoromethyl)-1,2,4-triazol-1-yl]-2-azaspiro[3.3]heptan-2-yl]methanone] | 1.51 nM
Cn1nc(CN2CC3(C2)CN(C(=O)N2CC4(CC(n5cnc(C(F)(F)F)n5)C4)C2)C3)cc1C(F)(F)F [Example 161, [6-[[1-methyl-5-(trifluoromethyl)pyrazol-3-yl]methyl]-2,6-diazaspiro[3.3]heptan-2-yl]-[6-[3-(trifluoromethyl)-1,2,4-triazol-1-yl]-2-azaspiro[3.3]heptan-2-yl]methanone] | 2.39 nM
O=C(N1CC2(CC(Cn3cc(C(F)(F)F)cn3)C2)C1)N1CC2(CC(n3cnc(C4(O)CC4)n3)C2)C1 [Example 12] | 8.67 nM
O=C(N1CC2(CC(Cc3n[nH]c(C4(C(F)(F)F)CC4)n3)C2)C1)N1CC2(CC(n3cnc(C(F)(F)F)n3)C2)C1 [Example 101, [6-[[5-[1-(trifluoromethyl)cyclopropyl]-1H-1,2,4-triazol-3-yl]methyl]-2-azaspiro[3.3]heptan-2-yl]-[6-[3-(trifluoromethyl)-1,2,4-triazol-1-yl]-2-azaspiro[3.3]heptan-2-yl]methanone] | 0.89 nM
Cc1cc(C2CC2)n(CC2CC3(C2)CN(C(=O)N2CC4(CC(n5cnc(C(F)(F)F)n5)C4)C2)C3)n1 [Example 131, [6-[(5-cyclopropyl-3-methyl-pyrazol-1-yl)methyl]-2-azaspiro[3.3]heptan-2-yl]-[6-[3-(trifluoromethyl)-1,2,4-triazol-1-yl]-2-azaspiro[3.3]heptan-2-yl]methanone] | 1.08 nM
O=C(N1CC2(CC(Cc3cc(C(F)(F)F)n[nH]3)C2)C1)N1CC2(CC(n3cnc(C(F)(F)F)n3)C2)C1 [Example 298, [6-[[3-(trifluoromethyl)-1H-pyrazol-5-yl]methyl]-2-azaspiro[3.3]heptan-2-yl]-[6-[3-(trifluoromethyl)-1,2,4-triazol-1-yl]-2-azaspiro[3.3]heptan-2-yl]methanone] | 0.23 nM
Cn1nnc(CN2CC3(C2)CN(C(=O)N2CC4(CC(n5cnc(C6CC6)n5)C4)C2)C3)c1C(F)(F)F [Example 244, [6-(3-cyclopropyl-1,2,4-triazol-1-yl)-2-azaspiro[3.3]heptan-2-yl]-[6-[[1-methyl-5-(trifluoromethyl)triazol-4-yl]methyl]-2,6-diazaspiro[3.3]heptan-2-yl]methanone] | 22.9 nM
O=C(N1CC2(CC(n3cnc(C4CC4)n3)C2)C1)N1CC2(CN(Cc3ccn(CCC(F)(F)F)n3)C2)C1 [Example 321, [6-(3-cyclopropyl-1,2,4-triazol-1-yl)-2-azaspiro[3.3]heptan-2-yl]-[6-[[1-(3,3,3-trifluoropropyl)pyrazol-3-yl]methyl]-2,6-diazaspiro[3.3]heptan-2-yl]methanone] | 49.1 nM
O=C(N1CC2(CC(n3cnc(C4CC4)n3)C2)C1)N1CC2(CN(Cc3cc(C4CCC4)[nH]n3)C2)C1 [Example 274, [6-[(5-cyclobutyl-1H-pyrazol-3-yl)methyl]-2,6-diazaspiro[3.3]heptan-2-yl]-[6-(3-cyclopropyl-1,2,4-triazol-1-yl)-2-azaspiro[3.3]heptan-2-yl]methanone] | 5.29 nM
CC(F)(F)c1noc(CN2CC3(C2)CN(C(=O)N2CC4(CC(n5cnc(C(F)(F)F)n5)C4)C2)C3)n1 [Example 258, [6-[[3-(1,1-difluoroethyl)-1,2,4-oxadiazol-5-yl]methyl]-2,6-diazaspiro[3.3]heptan-2-yl]-[6-[3-(trifluoromethyl)-1,2,4-triazol-1-yl]-2-azaspiro[3.3]heptan-2-yl]methanone] | 53 nM
Cn1ncc(C(F)(F)F)c1CN1CCC2(CC1)CN(C(=O)N1CC3(CC(c4cc(C5CC5)n[nH]4)C3)C1)C2 [Example 64, [6-(3-cyclopropyl-1H-pyrazol-5-yl)-2-azaspiro[3.3]heptan-2-yl]-[7-[[2-methyl-4-(trifluoromethyl)pyrazol-3-yl]methyl]-2,7-diazaspiro[3.5]nonan-2-yl]methanone] | 0.32 nM

Continued, values first:

IC50 | SMILES
183 nM | O=C(N1CC2(CC(n3cnc(C(F)(F)F)n3)C2)C1)N1CC2(CN(Cc3ccn(CCC(F)(F)F)n3)C2)C1 [Example 312, [6-[3-(trifluoromethyl)-1,2,4-triazol-1-yl]-2-azaspiro[3.3]heptan-2-yl]-[6-[[1-(3,3,3-trifluoropropyl)pyrazol-3-yl]methyl]-2,6-diazaspiro[3.3]heptan-2-yl]methanone]
161 nM | O=C(N1CC2(CC(n3cnc(C4(O)CC4)n3)C2)C1)N1CC2(CN(Cc3cc(C(F)(F)F)ns3)C2)C1 [Example 152, [6-[3-(1-hydroxycyclopropyl)-1,2,4-triazol-1-yl]-2-azaspiro[3.3]heptan-2-yl]-[6-[[3-(trifluoromethyl)isothiazol-5-yl]methyl]-2,6-diazaspiro[3.3]heptan-2-yl]methanone]
118 nM | O=C(N1CC2(CC(n3cnc(C4(O)CC4)n3)C2)C1)N1CC2(CN(Cc3nc(C4CC4)ns3)C2)C1 [Example 45, [6-[(3-cyclopropyl-1,2,4-thiadiazol-5-yl)methyl]-2,6-diazaspiro[3.3]heptan-2-yl]-[6-[3-(1-hydroxycyclopropyl)-1,2,4-triazol-1-yl]-2-azaspiro[3.3]heptan-2-yl]methanone]
92.6 nM | O=C(N1CC2(CC(n3cnc(C4CC4)n3)C2)C1)N1CC2(CN(Cc3ccn(CC(F)(F)F)n3)C2)C1 [Example 100, [6-(3-cyclopropyl-1,2,4-triazol-1-yl)-2-azaspiro[3.3]heptan-2-yl]-[6-[[1-(2,2,2-trifluoroethyl)pyrazol-3-yl]methyl]-2,6-diazaspiro[3.3]heptan-2-yl]methanone]
18.3 nM | O=C(N1CC2(CC(Cc3cn(C4CC4)nc3C(F)(F)F)C2)C1)N1CC2(CC(n3cnc(C4(O)CC4)n3)C2)C1 [Example 63, [6-[[1-cyclopropyl-3-(trifluoromethyl)pyrazol-4-yl]methyl]-2-azaspiro[3.3]heptan-2-yl]-[6-[3-(1-hydroxycyclopropyl)-1,2,4-triazol-1-yl]-2-azaspiro[3.3]heptan-2-yl]methanone]
1380 nM | Cn1ncc(P(C)(C)=O)c1CN1CC2(C1)CN(C(=O)N1CC3(CC(n4cnc(C(F)(F)F)n4)C3)C1)C2 [Example 227, [6-[(4-dimethylphosphoryl-2-methyl-pyrazol-3-yl)methyl]-2,6-diazaspiro[3.3]heptan-2-yl]-[6-[3-(trifluoromethyl)-1,2,4-triazol-1-yl]-2-azaspiro[3.3]heptan-2-yl]methanone]
0.38 nM | O=C(N1CC2(CC(Cn3ccc(C4CC4)n3)C2)C1)N1CC2(CC(n3cnc(C4CC4)n3)C2)C1 [Example 143, [6-[(3-cyclopropylpyrazol-1-yl)methyl]-2-azaspiro[3.3]heptan-2-yl]-[6-(3-cyclopropyl-1,2,4-triazol-1-yl)-2-azaspiro[3.3]heptan-2-yl]methanone]
66.8 nM | O=C(N1CC2(CC(n3cnc(C4CC4)n3)C2)C1)N1CC2(CN(Cc3nnc(C(F)(F)F)s3)C2)C1 [Example 83, [6-(3-cyclopropyl-1,2,4-triazol-1-yl)-2-azaspiro[3.3]heptan-2-yl]-[6-[[5-(trifluoromethyl)-1,3,4-thiadiazol-2-yl]methyl]-2,6-diazaspiro[3.3]heptan-2-yl]methanone]
1.2 nM | O=C(N1CC2(CC(n3cnc(C4CC4)n3)C2)C1)N1CC2(CN(Cc3nc(-c4ccccc4)no3)C2)C1 [Example 245, [6-(3-cyclopropyl-1,2,4-triazol-1-yl)-2-azaspiro[3.3]heptan-2-yl]-[6-[(3-phenyl-1,2,4-oxadiazol-5-yl)methyl]-2,6-diazaspiro[3.3]heptan-2-yl]methanone]
2.21 nM | Cn1ncc(C(F)(F)F)c1CC1CC2(C1)CN(C(=O)N1CC3(CC(n4cnc(C5(O)CC5)n4)C3)C1)C2 [Example 3]
2.08 nM | O=C(N1CC2(CC(Cc3cc(C(F)(F)F)nn3CC(F)(F)F)C2)C1)N1CC2(CC(n3cnc(C4(O)CC4)n3)C2)C1 [Example 139]
0.18 nM | O=C(N1CC2(CC(Cc3nc(C(F)(F)F)ns3)C2)C1)N1CC2(CC(n3cnc(C4CC4)n3)C2)C1 [Example 16]
0.31 nM | O=C(N1CC2(CC(Cc3n[nH]cc3C(F)(F)F)C2)C1)N1CC2(CC(n3cnc(C(F)(F)F)n3)C2)C1 [Example 129, [6-[[4-(trifluoromethyl)-1H-pyrazol-3-yl]methyl]-2-azaspiro[3.3]heptan-2-yl]-[6-[3-(trifluoromethyl)-1,2,4-triazol-1-yl]-2-azaspiro[3.3]heptan-2-yl]methanone]
9.77 nM | Cc1nc(C)c(CN2CC3(C2)CN(C(=O)N2CC4(CC(n5cnc(C6CC6)n5)C4)C2)C3)s1 [Example 302, [6-(3-cyclopropyl-1,2,4-triazol-1-yl)-2-azaspiro[3.3]heptan-2-yl]-[6-[(2,4-dimethylthiazol-5-yl)methyl]-2,6-diazaspiro[3.3]heptan-2-yl]methanone]
2.12 nM | Cn1ncc(C(F)(F)F)c1CN1CCC2(CC1)CN(C(=O)N1CC3(CC(n4cnc(C5(O)CC5)n4)C3)C1)C2 [Example 67, [6-[3-(1-hydroxycyclopropyl)-1,2,4-triazol-1-yl]-2-azaspiro[3.3]heptan-2-yl]-[7-[[2-methyl-4-(trifluoromethyl)pyrazol-3-yl]methyl]-2,7-diazaspiro[3.5]nonan-2-yl]methanone]
